Results reported in publication PMC4482062 (Nucleic Acids Research, 2015).
Values joined by “and” are separate entries in the source; they are usually repeats but may differ in a detail not shown here. Equal entries are not always repeated. Where two headings read alike, the source gives them in different places.

Key:
[1] = parameters: method as in PMID 10858319; conditions: in water; cited from earlier work
[2] = target: T1, CmoB (Escherichia coli, UniProt P76291); assay: Time course of SAM-dependent mo5U modification ([14CH3]-SAM), competition with Cx-SAM; format: biochemical; conditions: 10-μM Cx-SAM, 140 μM [14CH3]-SAM, 90 min
T1 construct: vector LIC-pET30a) (cleaved yes); made in house; host or cells: Escherichia coli BL21 (DE3)
Experimental: The assay was initiated by mixing 10-mM Tris (pH 8.0), 4-mM MgCl2, 140-μM [^14CH3]-SAM (Perkin Elmer), 100 μg of total tRNA prepared from cmoB-deficient cells and 2-μM CmoB in 50 μl. In competition assays to measure the effect of Cx-SAM on methylation, 10-μM Cx-SAM was added to the above mixture. […] RNA was washed with 0.2-M ammonium acetate (pH 6.0) using an MWCO 10-kDa filter by centrifugation. This washing step was repeated two more times to remove unreacted ^14C-SAM. RNA was then spotted on a DE81 filter (GE) and air-dried for 20 min. Images of the radioactive tRNA were recorded on a phosphorimaging plate (Molecular Dynamics) for 2 days and analyzed using a Molecular Dynamics Storm 860 PhosphorImager System with ImageQuant software.

[3] = target: T2, CmoB K91A mutant (Escherichia coli, UniProt P76291, K91A); assay: In vitro LC-MS-based alkyl transfer assay, K91A CmoB; format: biochemical; conditions: Cx-SAM as alkyl donor, after 24 h
T2 construct: vector LIC-pET30a) (cleaved yes); made in house; host or cells: Escherichia coli BL21 (DE3)
Experimental: (§1) The assay solution for SAM-dependent mo5U formation contained 10-mM Tris-HCl (pH 8.0), 4-mM MgCl2, 0.2-mM SAM and 20–25 μg (∼20 μM) of total tRNA prepared from cmoB-mutant E. coli cells in 50 μl. Reaction conditions for Cx-SAM-dependent cmo5U formation assay were identical, with the exception that10-μM Cx-SAM was used in place of SAM. Assays were initiated by addition of 0.1–2-μM CmoB to the above mixtures and subsequently incubated at the room temperature. The reaction was terminated by the addition of 0.1-mg/ml P1 nuclease, followed by incubation at 60°C for at least 1 h. […] Hydrolyzed nucleotides were directly applied to HPLC without further processing for LC-MS analysis as described above.

[4] = target: T3, wild-type CmoB (Escherichia coli, UniProt P76291); assay: In vitro LC-MS-based alkyl transfer assay, wild-type CmoB; format: biochemical
T3 construct: vector LIC-pET30a) (cleaved yes); made in house; host or cells: Escherichia coli BL21 (DE3)
Experimental: as §1

[5] = target: T3, wild-type CmoB; assay: Isothermal titration calorimetry, wild-type CmoB; format: binding; conditions: for K (binding constant): single-site model
Experimental: (§2) CmoB was extensively dialyzed for 24 h against binding buffer (20-mM HEPES, pH 7.5) using a dialysis cassette with 10-kDa MWCO (Pierce). Lyophilized Cx-SAM was dissolved in the binding buffer at a final concentration of 1.3 mM. SAM was purchased from Sigma and dissolved in binding buffer at a final concentration of 10 mM. Prior to use, all titration samples were centrifuged for 20 min at 4°C. Isothermal titration calorimetry (ITC) experiments were performed at 15°C using an auto-ITC200 (MicroCal, LLC, Northhampton, MA, USA) in which the reaction cell (202.8 μl) containing CmoB (50 μM and 370 μM for Cx-SAM and SAM, respectively) was titrated with 40 × 1-μl injections of 1.3-mM Cx-SAM or 6.7-mM SAM with an equilibration time of 180 s. Raw injection traces were integrated over time, normalized per mol of ligand injected and corrected for the heat of dilution obtained from the plateau of a titration curve. Titration data were analyzed using a single-site model in Origin (version X) and Igor Pro 5/6. […] Based on the chemical synthesis, the Cx-SAM utilized in the binding assay is a racemic mixture, of which only the S-isomer is capable of acting as a substrate/ligand for CmoB. Therefore, the stoichiometry was fixed at 1:1 and the activity of the ligand was introduced as a fitting parameter for Cx-SAM.

[6] = target: T4, CmoB Y200A mutant (Escherichia coli, UniProt P76291, Y200A); assay: Isothermal titration calorimetry, Y200A mutant CmoB; format: binding; conditions: for K (binding constant): 15°C, single-site model; for ΔG°: ΔG° = −RT lnK
T4 construct: vector LIC-pET30a) (cleaved yes); made in house; host or cells: Escherichia coli BL21 (DE3)
Experimental: as §2

[7] = target: T5, CmoB R315A mutant (Escherichia coli, UniProt P76291, R315A); assay: Isothermal titration calorimetry, R315A mutant CmoB; format: binding; conditions: for K (binding constant) / ΔH°: ITC; for K (binding constant): 15°C, single-site model; for K (binding constant) / ΔH° / ΔG° / ΔS°: R315A; for ΔG°: ΔG° = −RT lnK; for ΔS°: ΔS° = (ΔH°−ΔG°)/T
T5 construct: vector LIC-pET30a) (cleaved yes); made in house; host or cells: Escherichia coli BL21 (DE3)
Experimental: as §2

[8] = target: T2, CmoB K91A mutant; assay: Isothermal titration calorimetry, K91A mutant CmoB; format: binding; conditions: for K (binding constant): single-site model; for ΔG°: ΔG° = −RT lnK; for ΔS°: ΔS° = (ΔH°−ΔG°)/T
Experimental: as §2
The titration curve was analyzed using macroscopic binding constants and enthalpies describing binding of n-molecules of Cx-SAM to tetrameric mutant CmoB. Initially, the titration curve was analyzed with all possible values of n (=1~4). […] Therefore, the titration curve was analyzed using three sets of binding constants and enthalpies (Supplementary Table 2). The fitted values of the macroscopic binding constants were compared to those expected for a case of non-cooperative binding. For both cooperative and non-cooperative binding, K1 is given by 4Ksite where 4 accounts for the number of ligand binding sites in teterameric CmoB (i.e., statistical factor) and Ksite describes the “intrinsic” affinity of each site. Then, Ksite=3.6x10^4 M^-1. The fitted value of K2 is ~ 8.4-fold higher than that calculated for the case of non-cooperative binding (6Ksite^2=7.7x10^9 M^-2), indicating positive cooperativity involved in binding of the second Cx-SAM. Since the population of K91A with three Cx-SAMs bound is negligible, binding of the third Cx-SAM is deduced to be negatively cooperative.
A possible molecular explanation for such heterogeneous cooperativity involved in the interaction between K91A and Cx-SAM is the presence of (at least) two different types of interface between the subunits in tetrameric K91A which is consistent with the structural model of the CmoB tetramer. In this model (Supplementary Figure 9), the four ligand binding sites are initially equivalent, but binding of the first ligand to any of these four sites differentially affects (increases and decreases) the affinities of the neighboring sites for the second ligand through the different subunit interfaces. This model is a variation of the classical “square” model used in the analysis of the interaction between hemoglobin and oxygen(2) and provides a molecular description of the fitted macroscopic binding constants in terms of the intrinsic affinity (Ksite) and two types of cooperativity (ω+ and ω-): K1=4Ksite; K2=2Ksite^2(1+ω++ω-); K4=Ksite^4(ω+ω-)^2. Then, Ksite=3.6x10^4 M^-1, ω+=23.8, and ω-=0.4. The value of ω is equivalent to a fold-change in the Cx-SAM affinity of a binding site in tetrameric K91A when its neighboring site is already occupied by Cx-SAM.
^aIn this model, the interaction is described by a set of binding events where n-molecules of Cx-SAM bind tetrameric CmoB (K91A) with the corresponding binding constants (Kn) and enthalpies (∆Hn°). Initially, the titration curve was analyzed by this model including all possible values of n (=1~4). […] Therefore, the titration curve was analyzed using three sets of binding constants and enthalpies.

[9] = target: the molecule itself; assay: AUC; sedimentation velocity, g(s*) distribution fitted to a single-species model; with or without Cx-SAM or SAM

T5 sequence (P76291 whole entry R315A): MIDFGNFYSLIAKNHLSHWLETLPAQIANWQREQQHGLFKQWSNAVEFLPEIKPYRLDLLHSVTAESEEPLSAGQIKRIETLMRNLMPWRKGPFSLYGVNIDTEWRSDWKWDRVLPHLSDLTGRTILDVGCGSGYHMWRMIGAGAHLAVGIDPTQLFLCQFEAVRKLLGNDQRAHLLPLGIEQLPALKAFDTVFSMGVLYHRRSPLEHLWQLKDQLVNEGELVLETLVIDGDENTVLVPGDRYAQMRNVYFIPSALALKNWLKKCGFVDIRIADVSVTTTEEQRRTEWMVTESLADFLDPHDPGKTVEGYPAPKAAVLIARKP
T2 sequence (P76291 whole entry K91A): as the sequence (P76291 whole entry R315A) above, with K91A, A315R counted along it
T4 sequence (P76291 whole entry Y200A): as the sequence (P76291 whole entry R315A) above, with Y200A, A315R counted along it

## O=c1[nH]c(=O)n([C@H]2C[C@H](O)[C@@H](CO)O2)cc1O [5-hydroxy-2′-deoxyuridine]
[1]
  pKa of the hydroxyl group on the pyrimidine ring: 7.68

## Nc1ncnc2c1ncn2[C@@H]1O[C@H](C[S+](CC[C@H](N)C(=O)[O-])CC(=O)O)[C@@H](O)[C@H]1O (stereo partly drawn) [Cx-SAM, carboxy-S-adenosine-L-methionine]
[2]
  Effect on [14CH3]-SAM methylation of tRNA (radioactive signal): no detectable radioactive signal
[3]
  cmo5U formation: No significant cmo5U signal was detected
[4]; 0.1-μM wild-type CmoB, 10-μM Cx-SAM, tRNA from cmoB-defective cells
  Time to detectable cmo5U formation: 9 min
[4]; 10-μM Cx-SAM and 2-mM SAM
  Time to detected cmo5U with both donors present: 20 min
[5]; ITC
  ΔH°: -7.9 ± 0.1 kcal/mol
[5]; ITC, 15°C, read-out: Kd
  Kd: 0.4 ± 0.03 µM
[5]; ITC, 15°C
  K (binding constant): 2.5 ± 0.2 × 10^6 M^−1 and 2.5 ± 0.2 x 10^6 M^−1
[5]; ITC, text
  TΔS°: 0.55 ± 0.06 kcal/mol
  ΔG°: -8.44 ± 0.03 kcal/mol
  ΔH°: -7.88 ± 0.05 kcal/mol
  ΔS°: 1.92 ± 0.21 cal·mol^−1·deg^−1
[5]; ΔG° = −RT lnK
  ΔG°: -8.4 ± 0.1 kcal/mol
[5]; ΔS° = (ΔH°−ΔG°)/T
  ΔS°: 1.9 ± 0.2 cal/mol/deg
[6]
  Kd: 1.8 ± 0.3 µM
[6]; ITC, Y200A
  K (binding constant): 5.5 ± 0.8 × 10^5 M^−1 and 5.5 ± 0.8 x 10^5 M^−1
  ΔH°: -7.3 ± 0.1 kcal/mol
[6]; Y200A
  Specificity ratio K(Cx-SAM)/K(SAM): > 65
  ΔG°: -7.6 ± 0.1 kcal/mol
[6]; Y200A vs wild type
  Reduction of Cx-SAM binding affinity compared to the wild type: 4–5 fold
[6]; ΔS° = (ΔH°−ΔG°)/T, Y200A
  ΔS°: 0.8 ± 0.5 cal/mol/deg
[7]
  Kd: 2.1 ± 0.2 µM
  K (binding constant): 4.7 ± 0.3 × 10^5 M^−1 and 4.7 ± 0.3 x 10^5 M^−1
  ΔH°: -8.5 ± 0.1 kcal/mol
  ΔG°: -7.5 ± 0.1 kcal/mol
  ΔS°: −3.5 ± 0.3 cal/mol/deg
[7]; R315A vs wild type
  Reduction of Cx-SAM binding affinity compared to the wild type: 4–5 fold
[8]; ITC, 15°C, K91A
  K (binding constant): 9.0 ± 1.8 × 10^3 M^−1 and 9.0 ± 1.8 x 10^3 M^−1
[8]; ITC, K91A
  ΔH°: -16.5 ± 1.6 kcal/mol
[8]; K1 (macroscopic binding constant), tetrameric K91A, 1 ligand bound
  Kd: 7.14 µM
[8]; K1=4Ksite, tetrameric K91A
  Ksite (intrinsic affinity of each site): 36000 M⁻¹
[8]; Kd, ITC, 15°C, K91A
  Kd: 111 µM and 110 µM
[8]; square model, tetrameric K91A
  ω+ (positive cooperativity factor): 23.8
  ω- (negative cooperativity factor): 0.4
[8]; tetrameric K91A, 2 ligands bound
  K2 (macroscopic binding constant): 6.5 (± 1.4) x 10^10 M^-2
[8]; tetrameric K91A, 4 ligands bound
  K4 (macroscopic binding constant): 1.6 (± 0.5) x 10^20 M^-4
[8]; vs 6Ksite^2
  Fitted K2 relative to non-cooperative binding: ~ 8.4 fold
[8]; vs Ksite^4
  Fitted K4 relative to non-cooperative binding: ~ 98.5 fold
[8]; K91A
  ΔG°: -5.2 ± 0.1 kcal/mol
  ΔS°: −39.3 ± 5.4 cal/mol/deg

## C[S+](CC[C@H](N)C(=O)[O-])C[C@H]1O[C@@H](n2cnc3c(N)ncnc32)[C@H](O)[C@@H]1O (stereo partly drawn) [SAM, reference compound]
[4]; 2-μM wild-type CmoB, 0.2-mM SAM as alkyl donor
  Time to observed mo5U formation: 5 h
[4]; 10-μM Cx-SAM and 2-mM SAM
  Time to detected trace mo5U with both donors present: 2 h
[5]; ITC
  ΔH°: -0.6 ± 0.1 kcal/mol
[5]; ITC, 15°C
  K (binding constant): 4.8 ± 2.0 × 10^3 M^−1 and 4.8 ± 2.0 x 10^3 M^−1
[5]; ITC, text
  TΔS°: 4.23 ± 0.27 kcal/mol
  ΔG°: -4.85 ± 0.24 kcal/mol
  ΔH°: -0.62 ± 0.12 kcal/mol
  ΔS°: 14.7 ± 0.9 cal·mol^−1·deg^−1
[5]; Kd, ITC
  Kd: 210 ± 90 µM
[5]; Kd, ITC, 15°C
  Kd: 200 µM and 208 µM
[5]; ΔG° = −RT lnK
  ΔG°: -4.9 ± 0.2 kcal/mol
[5]; ΔS° = (ΔH°−ΔG°)/T
  ΔS°: 14.7 ± 0.9 cal/mol/deg
[6]
  Kd: > 119 µM
[6]; ITC, Y200A
  K (binding constant): N.D.^e (< 8.4 × 10^3) M^−1
[6]; Y200A
  ΔG°: >-5.1 kcal/mol
[7]
  Kd: 140 ± 7.3 µM
  K (binding constant): 7.1 ± 0.4 x 10^3 M^−1
  ΔH°: -11.1 ± 0.2 kcal/mol
  ΔG°: -5.1 ± 0.1 kcal/mol
  ΔS°: −21.0 ± 0.8 cal/mol/deg
[8]; ITC, 15°C, K91A
  K (binding constant): 9.1 ± 0.2 × 10^4 M^−1 and 9.1 ± 0.2 x 10^4 M^−1
[8]; ITC, K91A
  ΔH°: -6.4 ± 0.1 kcal/mol
[8]; Kd, ITC, 15°C, K91A
  Kd: 11 ± 0.2 µM
[8]; K91A
  ΔG°: -6.5 ± 0.1 kcal/mol
  ΔS°: 0.4 ± 0.1 cal/mol/deg

B1: CmoB carboxymethyl transferase (enzyme, Escherichia coli (BL21 genomic DNA))
chain: MIDFGNFYSLIAKNHLSHWLETLPAQIANWQREQQHGLFKQWSNAVEFLPEIKPYRLDLLHSVTAESEEPLSAGQIKRIETLMRNLMPWRKGPFSLYGVNIDTEWRSDWKWDRVLPHLSDLTGRTILDVGCGSGYHMWRMIGAGAHLAVGIDPTQLFLCQFEAVRKLLGNDQRAHLLPLGIEQLPALKAFDTVFSMGVLYHRRSPLEHLWQLKDQLVNEGELVLETLVIDGDENTVLVPGDRYAQMRNVYFIPSALALKNWLKKCGFVDIRIADVSVTTTEEQRRTEWMVTESLADFLDPHDPGKTVEGYPAPKRAVLIARKP
notes: CmoB of Escherichia coli, cmoB gene amplified from genomic DNA of E. coli BL21 and cloned into LIC-pET30a; calculated monomer mass 37.01 kD; 319-323 C-alphas aligned per protomer in the structures; A selenomethionine-substituted form (made in E. coli B834, purified the same way) gave the experimental phases; also called wild-type CmoB; source: E. coli BL21 (DE3), purified (Ni-agarose, thrombin …)
[9]
  stoichiometry N: 4
